According to patent US20230027472A1, “TARGETING P73 FOR CANCERS RESISTANT TO BH3 MIMETICS” (BOARD OF REGENTS, THE UNIVERSITY OF TEXAS SYSTEM, priority 2019, published 2023):

Experiments:
Assay type in all cases: cell-based
[1] = tested on: OCI-AML3 cells; experiment: Annexin V staining and live cell counting by flow cytometry in OCI-AML3 cells with lentiviral p73 knockdown
Description: Apoptosis induction was measured by annexin V staining (Annexin V positive cells (%)), and live cell numbers were measured by counting beads by flow cytometry.

[2] = tested on: TAp73 and ΔNp73; experiment: TAp73 and ΔNp73 levels in AML cells after (R)-2HG treatment
Source text: Results The inventors determined copy numbers of ΔNp73 and TAp73 mRNA levels in 78 AML samples including 31 de novo AML using droplet digital PCR (ddPCR), which allows to determine the absolute quantity of the isoforms expressed, and investigated their clinical and biological relevance. ΔNp73 and TAp73 expression was detected in 93.6% and 98.7% of AML samples at variable levels (mean±SEM, 10.6±5.0, and 106.6±33.7 copies/μL, for ΔNp73 and TAp73, respectively). ΔNp73 and TAp73 mRNA levels were highly correlated (R^2=0.72, P<0.0001). […] However, AML with IDH1/2 mutations had 8.5-fold lower ΔNp73 expression than those with wild-type IDH1/2 (1.8±0.8 vs 15.4±7.7 copies/μL, P=0.0069), with a similar trend for TAp73 (49.0±20.3 vs 138.6±51.4 copies/μL, P=0.056). […] To further explore the regulation of TP73 isoforms, the inventors used MDM2 inhibitor Nutlin-3a to induce p53 which is a transcriptional inducer of ΔNp73. […] AML cells with IDH1/2 mutations are more dependent on Bcl-2 than those without (Chan, Nat Med 2015).

[3] = tested on: AML cells; experiment: Susceptibility of AML cells to Bcl-2 inhibitor ABT-199 (VEN) after (R)-2HG treatment; settings: AML cells treated with 2HG
[4] = tested on: MV4;11 cells; experiment: Sensitivity of MV4;11 parent and ABT-199 resistant (ABTR) cells to ABT-199, annexin V and live cell numbers; settings: MV4;11 ABTR cells versus parent
Description: (§1) In FIG. 2A, there are immunoblot images of two AML cell lines (MOLM-13 and MV4;11 cells) that acquired ABT-199 resistance (ABTR) through long-term exposure to continuous treatment of ABT-199. Parental control cells (Parent) are used for comparison. Histone H3 (H3) serves as a loading control, and relative protein levels were measured as ratios of target proteins and H3 through densitometry. […] In FIG. 2B, there is shown sensitivity of MOLM-13 and MV4;11 parent and ABTR cells to ABT-199. Apoptosis induction was measured by annexin V staining (Annexin V positive cells (%)), and live cell numbers were measured by counting beads by flow cytometry.

[5] = tested on: MOLM-13 cells; experiment: Sensitivity to ABT-199 in MOLM-13 cells with overexpression of p73 isoforms/variants, annexin V and live cell numbers
Description: In FIG. 3A, there are immunoblot images of different p73 N-terminal isoforms (TA and ΔN) and C-terminal variants (α, β and γ) protein levels. MOLM13 cells with overexpression of those p73 isoforms/variants was generated by lentiviral transfection. β-actin serves as a loading control. Successful overexpression of p73 isoforms/variants in MOLM-13 cells, which are originally sensitive to ABT-199. […] Apoptosis induction was measured by annexin V staining (Annexin V positive cells (%)), and live cell numbers were measured by counting beads by flow cytometry. […] A p73 isoform ΔNp73γ overexpression induced resistance to ABT-199, indicating a novel resistance mechanism by p73 isoforms/variants to ABT-199 in AML cells.

[6] = tested on: MOLM-13 cells; experiment: Sensitivity of MOLM-13 parent and ABT-199 resistant (ABTR) cells to ABT-199, annexin V and live cell numbers; settings: MOLM-13 ABTR cells versus parent
Description: as §1

[7] = tested on: OCI-AML3 cells; experiment: Apoptosis induction by Nutlin-3a (specific annexin V induction) in OCI-AML3 cells with vector control or p73 knockdown; settings: 5 μM Nutlin-3a
Source text: (§2) To further explore the regulation of TP73 isoforms, the inventors used MDM2 inhibitor Nutlin-3a to induce p53 which is a transcriptional inducer of ΔNp73.

[8] = tested on: p73; experiment: p73 protein levels after MDM2 inhibition in AML cells
Source text: as §2

Nc1ncn([C@@H]2O[C@H](CO)[C@@H](O)[C@H]2O)c(=O)n1 [5′-azacitidine]
apoptosis induction (Annexin V positive cells), p73 knockdown versus control ([1]; p73 knockdown): enhances apoptosis induction

O=C(O)CC[C@@H](O)C(=O)O [(R)-2HG]
TAp73 and ΔNp73 levels [2]: reduced both TAp73 and ΔNp73
susceptibility to the Bcl-2 inhibitor ABT-199 (VEN) [3]: increased susceptibility

CC1(C)CCC(CN2CCN(c3ccc(C(=O)NS(=O)(=O)c4ccc(NCC5CCOCC5)c([N+](=O)[O-])c4)c(Oc4cnc5[nH]ccc5c4)c3)CC2)=C(c2ccc(Cl)cc2)C1 [ABT-199]
sensitivity to ABT-199 (apoptosis, live cell numbers) [4]: clearly show resistance
sensitivity to ABT-199 (apoptosis, live cell numbers) ([5]; MOLM-13 cells with TAp73α overexpression): still sensitive
sensitivity to ABT-199 (apoptosis, live cell numbers) ([5]; MOLM-13 cells with TAp73α overexpression, listed as VEN): minimally increased VEN-induced apoptosis
sensitivity to ABT-199 (apoptosis, live cell numbers) ([5]; MOLM-13 cells with vector control): still sensitive
sensitivity to ABT-199 (apoptosis, live cell numbers) ([5]; MOLM-13 cells with ΔNp73β overexpression): still sensitive
sensitivity to ABT-199 (apoptosis, live cell numbers) ([5]; MOLM-13 cells with ΔNp73γ overexpression): resistant
sensitivity to ABT-199 (apoptosis, live cell numbers) ([5]; MOLM-13 cells with ΔNp73γ overexpression, listed as VEN): striking resistance
sensitivity to VEN ([1]; lentiviral knockdown of p73): enhanced sensitivity
apoptosis induction (Annexin V positive cells), p73 knockdown versus control ([1]; p73 knockdown): greater
live cell numbers, p73 knockdown versus control ([1]; p73 knockdown): superior reduction of live cell numbers
sensitivity to ABT-199 (apoptosis, live cell numbers) [6]: clearly show resistance

COc1ccc(C2=N[C@@H](c3ccc(Cl)cc3)[C@@H](c3ccc(Cl)cc3)N2C(=O)N2CCNC(=O)C2)c(OC(C)C)c1 [Nutlin-3a]
specific annexin V induction ([7]; OCI-AML3 cells with Shp73 (knockdown of TAp73 and ΔNp73)): 61.3±5.2%
specific annexin V induction ([7]; OCI-AML3 cells with vector control): 21.9±1.3%
p73 protein levels [8]: increased p73 protein levels

CCCCCCCCOC(=O)[C@H](O)CCC(=O)O [octyl-(R)-2HG]
TAp73 and ΔNp73 levels [2]: reduced both TAp73 and ΔNp73
susceptibility to the Bcl-2 inhibitor ABT-199 (VEN) [3]: increased susceptibility
